Measurements as given in paper PMC9287434, “Inhibition of NMDA receptors through a membrane-to-channel path” (Nature Communications, 2022).
Structures can show the parent of a compound that is named as a salt.

What was measured:
[1] = molecular target: T1, GluN1/2A receptors (Rattus norvegicus, UniProt P35439+Q00959); assay: MCI protocol, whole-cell recording from GluN1/2A NMDAR-expressing tsA201 cells; type: cell-based
T1 construct: expressed in transfected cells; host or cells: tsA201 cells (HEK 293 variant)
T1 sequence (Q00959 23-1464, other chains not shown): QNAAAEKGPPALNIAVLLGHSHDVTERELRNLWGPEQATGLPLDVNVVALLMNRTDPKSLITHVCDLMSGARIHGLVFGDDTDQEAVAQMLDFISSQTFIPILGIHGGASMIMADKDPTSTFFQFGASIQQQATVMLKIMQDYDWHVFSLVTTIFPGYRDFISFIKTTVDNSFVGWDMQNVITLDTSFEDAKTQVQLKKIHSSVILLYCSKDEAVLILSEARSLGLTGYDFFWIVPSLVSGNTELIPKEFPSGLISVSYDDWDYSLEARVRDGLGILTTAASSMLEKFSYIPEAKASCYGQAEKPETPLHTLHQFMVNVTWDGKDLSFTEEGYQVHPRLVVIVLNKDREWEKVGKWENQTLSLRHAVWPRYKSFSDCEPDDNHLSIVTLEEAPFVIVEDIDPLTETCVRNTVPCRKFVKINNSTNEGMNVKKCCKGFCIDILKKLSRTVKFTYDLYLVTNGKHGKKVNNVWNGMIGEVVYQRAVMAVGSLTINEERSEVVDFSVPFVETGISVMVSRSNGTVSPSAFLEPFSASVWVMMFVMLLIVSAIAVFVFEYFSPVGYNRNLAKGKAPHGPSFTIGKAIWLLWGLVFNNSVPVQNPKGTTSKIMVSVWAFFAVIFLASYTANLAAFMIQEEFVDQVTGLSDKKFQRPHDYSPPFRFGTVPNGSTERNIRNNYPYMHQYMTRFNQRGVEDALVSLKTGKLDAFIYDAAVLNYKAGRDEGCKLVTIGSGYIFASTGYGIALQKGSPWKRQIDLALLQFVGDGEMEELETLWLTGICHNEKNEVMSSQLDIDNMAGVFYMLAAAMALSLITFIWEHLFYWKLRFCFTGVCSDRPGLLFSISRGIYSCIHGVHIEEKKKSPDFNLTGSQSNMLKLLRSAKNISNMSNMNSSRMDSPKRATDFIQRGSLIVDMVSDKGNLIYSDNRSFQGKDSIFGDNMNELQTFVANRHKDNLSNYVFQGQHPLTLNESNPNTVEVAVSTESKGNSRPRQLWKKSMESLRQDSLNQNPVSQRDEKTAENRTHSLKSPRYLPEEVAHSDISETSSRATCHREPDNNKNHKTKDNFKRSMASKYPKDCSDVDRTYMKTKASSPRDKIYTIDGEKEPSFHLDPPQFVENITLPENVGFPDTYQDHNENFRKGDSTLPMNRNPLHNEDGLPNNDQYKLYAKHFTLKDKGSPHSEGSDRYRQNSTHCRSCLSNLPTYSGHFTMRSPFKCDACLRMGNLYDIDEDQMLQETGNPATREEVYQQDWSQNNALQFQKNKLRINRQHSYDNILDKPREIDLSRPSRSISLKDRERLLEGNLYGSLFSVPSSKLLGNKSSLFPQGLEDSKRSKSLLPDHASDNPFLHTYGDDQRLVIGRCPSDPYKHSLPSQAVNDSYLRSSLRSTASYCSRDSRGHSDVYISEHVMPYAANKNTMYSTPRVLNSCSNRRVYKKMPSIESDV
Protocol: (§1) Wildtype or mutant GluN1/2A receptors were used for all tsA201 cell experiments. 12–24 h after plating, tsA201 cells were transiently co-transfected using FuGENE6 Transfection Reagent (Promega) with mammalian expression plasmids that contained cDNAs encoding enhanced green fluorescent protein (EGFP in pRK7) for identification of transfected cells, the rat GluN1-1a subunit (referred to as GluN1; GenBank X63255 in pcDNA3.1), and the rat GluN2A subunit (GenBank M91561 in pcDNA1). For some experiments cells were transfected with GluN1 and EGFP:pIRES:GluN2A (a generous gift from Dr. Kasper Hansen (Hansen, unpublished)), which was constructed by inserting EGFP in pIRES (Clontech) under transcriptional control of the CMV promoter, and rat GluN2A cDNA (GenBank D13211) after the IRES sequence. Voltage clamp recordings were performed on tsA201 cells 12–48 h after transfection.
(§2) Pipettes were pulled from borosilicate capillary tubing (Sutter Instruments) on a Flaming Brown P-97 microelectrode puller (Sutter Instruments) and polished with a heated filament to a resistance of 2–5 MΩ. Whole-cell recordings were made from cells expressing eGFP identified by epifluorescence illumination on an inverted Zeiss Axiovert microscope. Cells were held at a Vm of −65 mV (corrected for a liquid junction potential of −6 mV) unless otherwise indicated. Whole-cell currents were recorded using an Axopatch 200B patch-clamp amplifier (Molecular Devices). Series resistance was compensated 80–90% using the prediction and correction circuitry. […] NMDAR responses were activated by fast perfusion of 1 mM glutamate (tsA201 cells) or 100 μM NMDA (cultured neurons).
Solutions were delivered to cells using a ten-barrel fast perfusion system. […] If channel blocker remained in the extracellular solution after the 1-s wash, measurements of MCI could have been contaminated by inhibition due to traditional open channel block.
We averaged minima of IControl2/IControl1 and IControl1/IControl2 to control for any possible rundown or runup of NMDAR response. For pH jump experiments, to control also for possible delayed effects of the pH jump on NMDAR responses, the minimum IMCI/IControl value was measured using an additional set of experiments.

[2] = molecular target: T1, GluN1/2A receptors; assay: Traditional channel block (coapplication of drug and agonists), tsA201 cells; type: cell-based
Protocol: as §1, §2

[3] = pKa, charged/uncharged fraction in aqueous solution; type: physicochemical
Description: [36]). […] We tested this prediction by measuring the dependence of MCI on extracellular pH. A similar approach was used to study membrane partitioning of local anesthetics during VGSC inhibition[23],[24],[27].

[4] = tested on: native NMDARs in cultured neurons; details: cited from earlier work
[5] = parameters: method as in PMID 7086822; details: measured pKa; cited from earlier work
[6] = cited from earlier work
[7] = tested on: NMDARs; details: cited from earlier work
[8] = tested on: NMDAR; details: 30 μM intracellular memantine; cited from earlier work
[9] = molecular target: T2, GluN1/2A(M630A) receptors (Rattus norvegicus, UniProt P35439+Q00959, M630A); assay: MCI protocol, GluN1/2A(M630A)
T2 sequence (Q00959 23-1464 M630A, other chains not shown): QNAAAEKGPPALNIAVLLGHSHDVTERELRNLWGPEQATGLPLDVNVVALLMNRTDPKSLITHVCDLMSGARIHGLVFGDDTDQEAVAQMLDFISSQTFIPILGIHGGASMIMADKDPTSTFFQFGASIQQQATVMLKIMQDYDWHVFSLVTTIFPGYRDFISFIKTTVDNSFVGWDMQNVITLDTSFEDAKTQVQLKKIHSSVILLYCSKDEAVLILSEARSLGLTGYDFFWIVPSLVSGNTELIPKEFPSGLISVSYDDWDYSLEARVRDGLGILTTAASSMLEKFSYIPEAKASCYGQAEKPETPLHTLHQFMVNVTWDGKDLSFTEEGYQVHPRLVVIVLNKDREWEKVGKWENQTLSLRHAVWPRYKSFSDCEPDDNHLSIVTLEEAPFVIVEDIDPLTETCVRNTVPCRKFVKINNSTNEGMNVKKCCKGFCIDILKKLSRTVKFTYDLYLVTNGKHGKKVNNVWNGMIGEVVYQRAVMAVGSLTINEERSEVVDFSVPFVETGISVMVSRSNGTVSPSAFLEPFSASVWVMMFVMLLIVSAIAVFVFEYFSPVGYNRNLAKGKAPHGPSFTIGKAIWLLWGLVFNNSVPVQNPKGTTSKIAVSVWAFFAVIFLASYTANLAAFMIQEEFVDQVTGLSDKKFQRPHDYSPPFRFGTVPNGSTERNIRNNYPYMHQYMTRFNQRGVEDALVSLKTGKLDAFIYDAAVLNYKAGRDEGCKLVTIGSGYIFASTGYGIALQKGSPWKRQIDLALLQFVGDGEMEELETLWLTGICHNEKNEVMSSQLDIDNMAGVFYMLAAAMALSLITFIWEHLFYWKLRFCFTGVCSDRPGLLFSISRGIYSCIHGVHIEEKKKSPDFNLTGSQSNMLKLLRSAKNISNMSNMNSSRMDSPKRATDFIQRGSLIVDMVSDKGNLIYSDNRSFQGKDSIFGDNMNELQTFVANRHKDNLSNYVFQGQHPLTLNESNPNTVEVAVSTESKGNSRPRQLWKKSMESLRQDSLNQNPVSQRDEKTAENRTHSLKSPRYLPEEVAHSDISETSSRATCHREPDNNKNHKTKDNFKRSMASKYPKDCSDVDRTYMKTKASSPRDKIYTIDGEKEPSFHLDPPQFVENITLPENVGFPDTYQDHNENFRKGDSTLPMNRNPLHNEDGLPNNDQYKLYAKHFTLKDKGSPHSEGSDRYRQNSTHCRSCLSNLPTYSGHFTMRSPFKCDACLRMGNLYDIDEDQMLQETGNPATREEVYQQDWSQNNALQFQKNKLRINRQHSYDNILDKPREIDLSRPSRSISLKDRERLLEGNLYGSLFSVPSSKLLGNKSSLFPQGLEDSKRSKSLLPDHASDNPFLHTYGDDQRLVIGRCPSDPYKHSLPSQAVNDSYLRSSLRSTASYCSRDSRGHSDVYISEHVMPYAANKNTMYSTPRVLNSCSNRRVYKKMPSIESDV

[10] = molecular target: T3, GluN1/2A(M630W) receptors (Rattus norvegicus, UniProt P35439+Q00959, M630W); assay: MCI protocol, GluN1/2A(M630W)
T3 sequence (Q00959 23-1464 M630W, other chains not shown): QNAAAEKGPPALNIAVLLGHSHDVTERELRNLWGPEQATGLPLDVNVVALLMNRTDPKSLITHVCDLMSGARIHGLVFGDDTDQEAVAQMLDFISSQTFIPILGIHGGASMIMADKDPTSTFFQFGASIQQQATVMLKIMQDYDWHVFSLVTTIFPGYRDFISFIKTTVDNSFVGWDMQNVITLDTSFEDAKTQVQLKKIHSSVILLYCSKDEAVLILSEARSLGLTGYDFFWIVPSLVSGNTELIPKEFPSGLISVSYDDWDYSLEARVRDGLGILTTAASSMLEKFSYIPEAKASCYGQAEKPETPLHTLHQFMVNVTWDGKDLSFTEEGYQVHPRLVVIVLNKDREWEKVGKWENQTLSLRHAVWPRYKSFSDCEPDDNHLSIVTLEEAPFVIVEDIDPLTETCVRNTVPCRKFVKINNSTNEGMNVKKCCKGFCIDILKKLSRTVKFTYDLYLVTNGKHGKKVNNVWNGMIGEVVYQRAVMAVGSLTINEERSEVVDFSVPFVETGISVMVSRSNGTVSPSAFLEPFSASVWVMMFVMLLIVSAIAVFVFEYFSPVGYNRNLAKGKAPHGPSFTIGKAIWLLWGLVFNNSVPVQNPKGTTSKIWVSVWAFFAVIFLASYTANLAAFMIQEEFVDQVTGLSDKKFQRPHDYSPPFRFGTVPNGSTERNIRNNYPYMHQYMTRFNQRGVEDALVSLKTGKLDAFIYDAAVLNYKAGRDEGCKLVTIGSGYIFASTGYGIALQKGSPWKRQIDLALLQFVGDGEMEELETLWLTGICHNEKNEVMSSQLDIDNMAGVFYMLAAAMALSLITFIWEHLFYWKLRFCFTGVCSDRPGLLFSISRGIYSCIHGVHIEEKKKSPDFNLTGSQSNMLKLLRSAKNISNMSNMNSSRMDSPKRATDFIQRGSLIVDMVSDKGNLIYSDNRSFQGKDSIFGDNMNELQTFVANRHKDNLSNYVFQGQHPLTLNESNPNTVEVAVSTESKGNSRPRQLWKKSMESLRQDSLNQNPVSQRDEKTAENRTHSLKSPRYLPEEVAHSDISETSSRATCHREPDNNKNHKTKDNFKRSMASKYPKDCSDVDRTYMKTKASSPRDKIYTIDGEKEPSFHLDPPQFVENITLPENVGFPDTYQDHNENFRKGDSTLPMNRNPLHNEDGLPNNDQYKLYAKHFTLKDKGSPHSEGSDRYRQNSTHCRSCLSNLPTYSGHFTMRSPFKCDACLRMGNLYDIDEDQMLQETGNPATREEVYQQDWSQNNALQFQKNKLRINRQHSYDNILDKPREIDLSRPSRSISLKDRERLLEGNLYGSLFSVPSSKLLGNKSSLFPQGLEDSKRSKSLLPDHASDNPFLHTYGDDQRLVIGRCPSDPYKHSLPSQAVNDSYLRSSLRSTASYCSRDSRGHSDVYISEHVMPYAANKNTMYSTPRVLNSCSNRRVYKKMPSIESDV

[11] = molecular target: T2, GluN1/2A(M630A) receptors; assay: Traditional [memantine]-inhibition curve, GluN1/2A(M630A)
[12] = molecular target: T3, GluN1/2A(M630W) receptors; assay: Traditional [memantine]-inhibition curve, GluN1/2A(M630W)
[13] = tested on: native NMDARs in cultured neurons; assay: MCI protocol, neurons in primary culture; type: cell-based, rat; details: 1 μM MK-801, pH 7.2, cultured neurons, 100 μM NMDA
[14] = tested on: cultured neurons; parameters: method as in PMID 8570022; details: cultured neurons held at −70 mV; read-out: IC50 (previous value); cited from earlier work
[15] = constant pH 9.0, 1 mM TMM, 165 μM DMM
[16] = pH 7.2, WT, −65 mV, read-out: traditional IC50

c1ccc(C2(N3CCCCC3)CCCCC2)cc1 [PCP, phencyclidine]
Min IMCI/IControl ([1]; 10 μM PCP, pH 7.2): 0.409 ± 0.063 | MCI exhibited (in words) ([1]; pH 7.2): displayed MCI

CC12CC3CC(C)(C1)CC(N)(C3)C2 [memantine]
time constant of current decay following the preinhibition peak ([1]; 100 μM memantine, pH 7.2, from point-by-point ratios): 46.4 ± 4.1 ms | time constant of MCI onset ([1]; 100 μM memantine, pH 7.2, likely faster than decay time constant): < 46.4 ms | IC50 ([1]; Memantine MCI IC50, pH 7.2 (Fig. 1h data set)): 71 ± 1.7 µM | IC50 ([1]; Memantine MCI IC50, pH 9.0 jump): 8.77 ± 3.26 µM | IC50 ([1]; Memantine MCI IC50 of WT receptors, pH 7.2 (additional data set, Fig. 6h)): 68.6 ± 4.8 µM | potency estimated from few doses ([1]; tsA201, pH 6.3, read-out: Memantine MCI IC50): 841 ± 5 µM | IC50 ([2]; traditional IC50, pH 7.2, WT, −65 mV): 1.71 ± 0.06 µM | IC50 ([2]; traditional IC50, pH 9.0, WT): 3.43 ± 0.61 µM | Uncharged % ([3]; pH 6.3): 0.008% | [Uncharged] at 100 μM ([3]; pH 6.3): 8 nM | Uncharged % ([3]; pH 7.2): 0.063% | [Uncharged] at 100 μM ([3]; pH 7.2): 63 nM | Uncharged % ([3]; pH 9.0): 3.8% | [Uncharged] at 100 μM ([3]; pH 9.0): 3800 nM | MCI of native NMDARs (in words) [4]: subject to MCI | pKa [5]: 10.4 | LogP [6]: ~ 3 | MCI at depolarized Vm (in words) ([7]; 100 μM memantine, 35 mV): nearly abolished | NMDAR inhibition by intracellular drug (in words) [8]: not to cause NMDAR inhibition | IC50 [9]: 51.4 ± 5.1 µM | IC50 [10]: 148 ± 2.8 µM | IC50 [11]: 1.65 ± 0.09 µM | IC50 [12]: 1.49 ± 0.2 µM

CN1CC[C@@]23CCCC[C@@H]2[C@@H]1Cc1ccc(O)cc13 [dextrorphan]
Min IMCI/IControl ([1]; 50 μM dextrorphan, pH 7.2): 0.549 ± 0.043 | MCI exhibited (in words) ([1]; pH 7.2): displayed MCI

CC12CC3CC(C)(C1)CC([N+](C)(C)C)(C3)C2 [TMM, N,N,N,3,5-pentamethyladamantan-1-ammonium iodide]
Min IMCI/IControl ([1]; 1 mM TMM, constant pH 9.0): 0.987 ± 0.039 | MCI exhibited (in words) [1, 15]: no MCI | IC50 [2, 16]: 72.3 ± 14.2 µM

C[C@]12N[C@H](Cc3ccccc31)c1ccccc12 [MK-801]
Min IMCI/IControl ([1]; 1 μM MK-801, pH 7.2): 0.459 ± 0.035 | τM of MCI onset ([1]; 1 μM MK-801, pH 7.2): 1002 ± 135 ms | Min IMCI/IControl ([1]; 10 μM MK-801, pH 7.2): 0.097 ± 0.029 | τM of MCI onset ([1]; 10 μM MK-801, pH 7.2): 311 ± 59 ms | MCI exhibited (in words) ([1]; pH 7.2): displayed MCI | τM faster at 10 μM than at 1 μM MK-801 ([1]; pH 7.2): ~ 3 fold | Min IMCI/IControl [13]: 0.612 ± 0.019

CC12CC3CC(C)(C1)CC([N+](C)(C)C)(C3)C2 (as salt: iodide) [TMM, N,N,N,3,5-pentamethyladamantan-1-ammonium iodide]
melting point: > 200 °C (dec.)

CC12CC3CC1(C)C1(C)CC3(CN)CC21C [RL-208]
Min IMCI/IControl ([1]; 20 μM RL-208, pH 7.2): 0.275 ± 0.017 | MCI exhibited (in words) ([1]; pH 7.2): displayed MCI

CN(C)C12CC3CC(C)(CC(C)(C3)C1)C2.Cl [DMM, N,N,3,5-tetramethyladamantan-1-amine hydrochloride]
Min IMCI/IControl ([1]; 165 μM DMM, constant pH 9.0): 0.402 ± 0.037 | MCI exhibited (in words) [1, 15]: strong MCI | IC50 [2, 16]: 16.8 ± 1.5 µM | melting point: 180 °C | IC50 [14]: 28.4 ± 1.4 µM

CNC1(c2ccccc2Cl)CCCCC1=O (stereo not shown) [ketamine]
MCI exhibited (in words) [7]: does not exhibit MCI
